Measured values as given in ChEMBL document CHEMBL5137099, “Discovery of Novel cccDNA Reducers toward the Cure of Hepatitis B Virus Infection” (J Med Chem, 2022).
pIC50: −log10 of the molar value. ≈ marks a conversion by molar mass, not a printed value.

What was measured:
[1] = Aqueous solubility of the compound; assay type: physicochemical; conditions: buffer
Hepatitis B virus [2] = assay: Antiviral activity against HBV infected in human HepG2 cells assessed as reduction in HBeAg secretion incubated for 5 days by counter screen assay; assay type: functional, organism-based; conditions: HepG2, 120 h
[3] = Permeability of the compound by PAMPA analysis; assay type: ADME; conditions: read-out: permeability
Hepatitis B virus [4] = assay: Antiviral activity against HBV infected in human primary hepatocyte cells assessed as reduction in HBV cccDNA production by measuring inhibition of HBsAg secretion measured after 48 hrs by ELISA; assay type: functional, organism-based
[5] = Octanol-aqueous buffer distribution coefficient, log D of the compound at pH 7.4 by CAMDIS assay; assay type: physicochemical
Hepatitis B virus [6] = assay: Antiviral activity against HBV infected in human HepDES19 cells assessed as reduction in HBV cccDNA production by measuring inhibition of HBeAg secretion incubated for 5 days by ELISA; assay type: functional, organism-based; conditions: HepDES19, 120 h
[7] = Metabolic stability in mouse hepatocytes assessed as intrinsic clearance; assay type: ADME, cell-based, Hepatocyte; conditions: read-out: CLH

solubility [1] | Papp [3] | logD [5] | pIC50 (Hepatitis B virus [6]) | CLint scaled [7] | SMILES | pIC50 (Hepatitis B virus [2]) | pIC50 (Hepatitis B virus [4])
100 µg/mL (≈ 243 µM) | 1.18 ×10⁻⁶ cm/s | 1.42 | 6.60 | 11.9 mL/min/kg | O=C(O)C1CCN(c2ccc3c(=O)c4c(C(F)(F)F)ccc(Cl)c4oc3c2)C1 (centres undefined) | < 4.30 | 5.92
14 µg/mL (≈ 38.7 µM) | 1.83 ×10⁻⁶ cm/s | < -0.5 | 5.84 | 38.4 mL/min/kg | O=C(O)C1CCN(c2ccc3c(=O)c4c(F)ccc(Cl)c4oc3c2)C1 (centres undefined) | < 4.30 | 5.07
